As usually defined, the IC50 is the midpoint of a concentration-inhibition curve. One may read the inhibition as the drop in the measured response relative to a control, in per cent.

Where two headings read alike, the source gives them in different places.

13 compounds from patent publication US9828379B2 (priority 2013, dated 2017) can be followed below.

Experiment [1] has as its target T1, ABHD6 (Mus musculus, UniProt Q8R2Y0).
T1 sequence (Q8R2Y0 1-336): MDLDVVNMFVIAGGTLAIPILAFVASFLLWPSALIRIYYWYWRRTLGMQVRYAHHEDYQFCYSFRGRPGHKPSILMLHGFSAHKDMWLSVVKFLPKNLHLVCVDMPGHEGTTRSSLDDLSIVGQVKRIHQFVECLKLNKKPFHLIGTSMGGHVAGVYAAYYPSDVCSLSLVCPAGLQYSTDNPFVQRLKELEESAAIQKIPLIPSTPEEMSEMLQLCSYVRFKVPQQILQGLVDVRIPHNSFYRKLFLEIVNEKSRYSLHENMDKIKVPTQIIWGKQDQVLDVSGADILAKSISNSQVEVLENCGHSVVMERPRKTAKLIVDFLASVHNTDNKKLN
Nature of the experiment: biochemical. The settings on record: in vitro competitive ABPP.

Experiment [2] addresses T2, FAAH (Mus musculus, UniProt O08914).
T2 sequence (O08914 1-579): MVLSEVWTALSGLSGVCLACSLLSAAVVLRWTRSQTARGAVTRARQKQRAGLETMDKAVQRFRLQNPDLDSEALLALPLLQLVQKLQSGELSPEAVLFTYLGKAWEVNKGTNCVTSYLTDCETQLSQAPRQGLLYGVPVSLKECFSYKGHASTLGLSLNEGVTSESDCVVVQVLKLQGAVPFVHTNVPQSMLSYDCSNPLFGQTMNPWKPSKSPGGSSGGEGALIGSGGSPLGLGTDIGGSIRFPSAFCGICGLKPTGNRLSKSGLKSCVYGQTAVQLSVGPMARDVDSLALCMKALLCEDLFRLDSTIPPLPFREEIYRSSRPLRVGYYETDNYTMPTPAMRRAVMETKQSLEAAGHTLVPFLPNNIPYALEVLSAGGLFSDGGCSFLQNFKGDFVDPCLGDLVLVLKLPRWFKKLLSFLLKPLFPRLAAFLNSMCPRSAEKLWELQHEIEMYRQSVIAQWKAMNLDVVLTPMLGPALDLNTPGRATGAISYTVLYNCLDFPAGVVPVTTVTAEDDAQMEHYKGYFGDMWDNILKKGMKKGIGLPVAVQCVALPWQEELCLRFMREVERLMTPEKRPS
The experiment is described as follows: biochemical. The settings on record: in vitro competitive ABPP.

The target of experiment [3] is T3, MAGL (Mus musculus, UniProt O35678).
T3 sequence (O35678 1-303): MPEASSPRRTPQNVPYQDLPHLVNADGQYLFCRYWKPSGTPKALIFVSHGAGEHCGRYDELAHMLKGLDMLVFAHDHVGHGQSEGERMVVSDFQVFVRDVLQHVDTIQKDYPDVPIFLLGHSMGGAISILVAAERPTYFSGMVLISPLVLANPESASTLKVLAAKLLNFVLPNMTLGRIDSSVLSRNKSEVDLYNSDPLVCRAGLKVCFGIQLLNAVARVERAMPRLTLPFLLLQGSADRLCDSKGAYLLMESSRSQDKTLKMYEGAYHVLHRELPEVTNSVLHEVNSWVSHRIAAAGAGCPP
Nature of the experiment: biochemical.

Experiment [4] concerns the target T1, ABHD6. Nature of the experiment: In vitro competitive activity-based protein profiling (Table 2, % inhibition at 1 μM). The experiment is classed as biochemical. The settings on record: read-out: % Inhibition at 1 μM ABHD6.
The target in experiment [5] is T2, FAAH. The description is as above. The experiment is classed as biochemical. Particulars: read-out: % Inhibition at 1 μM FAAH.
Experiment [6] concerns the target T3, MAGL. Described as above. Particulars: read-out: % Inhibition at 1 μM MAGL. The experiment is classed as biochemical. The protocol:
After 30 min, FP—Rh (1.0 μL, 50 μM in DMSO) was added and the mixture was incubated for another 30 min at 37° C. Reactions were quenched with SDS loading buffer (50 μL-4×) and run on SDS-PAGE.
Cell lysates were diluted with mock proteomes for use in competitive ABPP experiments.

[7] abbreviates: mouse, in vitro competitive ABPP, read-out: Mouse (IC50 value, nM) MAGL.

For `O=C(OC(C(F)(F)F)C(F)(F)F)N1CC2CN(Cc3cccc(N4CCOCC4)c3Cl)CC2C1` (stereo not drawn) [Example 49, 1,1,1,3,3,3-Hexafluoropropan-2-yl 5-[[2-chloro-3-(morpholin-4-yl)phenyl]methyl]-octahydropyrrolo[3,4-c]pyrrole-2-carboxylate], the IC50 on ABHD6 [1] is 1000 to 10000 nM; at FAAH [2] it was 1000 to 10000 nM; on MAGL [3] (setting [7]), less than 100 nM. The inhibition at 1 µM at ABHD6 [4] is less than 25%; on FAAH [5], 25 to 75%; on MAGL [6], more than 75%.

As to `Cc1c(CN2CC3CN(C(=O)ON4C(=O)CCC4=O)CC3C2)cccc1N1CCCCC1` (stereo not drawn) [Example 104, 2,5-Dioxopyrrolidin-1-yl 5-[[2-methyl-3-(piperidin-1-yl)phenyl]methyl]-octahydropyrrolo[3,4-c]pyrrole-2-carboxylate], the IC50 on ABHD6 [1] is 1000 to 10000 nM; at FAAH [2], 100 to 1000 nM; on MAGL [3] (setting [7]), less than 100 nM. In addition, the inhibition at 1 µM at ABHD6 [4] is less than 25%; on FAAH [5], more than 75%; at MAGL [6] it was more than 75%.

As for `O=C(OC(C(F)(F)F)C(F)(F)F)N1CC2CN(Cc3ccc(Cl)cc3N3CCC3)CC2C1` (stereo not drawn) [Example 39, 1,1,1,3,3,3-Hexafluoropropan-2-yl 5-[[2-(azetidin-1-yl)-4-chlorophenyl]methyl]-octahydropyrrolo[3,4-c]pyrrole-2-carboxylate], the IC50 on ABHD6 [1] was 1000 to 10000 nM; at FAAH [2], 100 to 1000 nM; on MAGL [3] (setting [7]), less than 100 nM. Further, the inhibition at 1 µM was less than 25% at ABHD6 [4], 25 to 75% at FAAH [5] and more than 75% at MAGL [6].

Consider `CC(=O)N1CCC(c2nn(C(C)C)cc2CN2CC3CN(C(=O)OC(C(F)(F)F)C(F)(F)F)CC3C2)CC1` (stereo not drawn) [Example 55, 1,1,1,3,3,3-Hexafluoropropan-2-yl 5-[[3-(1-acetylpiperidin-4-yl)-1-(propan-2-yl)-1H-pyrazol-4-yl]methyl]-octahydropyrrolo[3,4-c]pyrrole-2-carboxylate], for which the concentration for half-maximal inhibition (IC50) at ABHD6 [1] is 1000 to 10000 nM; on FAAH [2], more than 10000 nM; on MAGL [3] (setting [7]), 100 to 1000 nM. The inhibition at 1 µM is less than 25% on ABHD6 [4], less than 25% at FAAH [5] and more than 75% at MAGL [6].

With `O=C(OC(C(F)(F)F)C(F)(F)F)N1CC2CN(Cc3ccc(C(=O)N4CCCCC4)c(OC(F)(F)F)c3)CC2C1` (stereo not drawn) [Example 192, 1,1,1,3,3,3-hexafluoropropan-2-yl 5-(4-(piperidine-1-carbonyl)-3-(trifluoromethoxy)benzyl)hexahydropyrrolo[3,4-c]pyrrole-2(1H)-carboxylate], the IC50 is 1000 to 10000 nM at ABHD6 [1], more than 10000 nM at FAAH [2] and 100 to 1000 nM on MAGL [3] (setting [7]). For the same compound, the inhibition at 1 µM was 25 to 75% on ABHD6 [4], less than 25% on FAAH [5] and more than 75% on MAGL [6].

As for `Cn1nc(-c2ccccc2)cc1CN1CC2CN(C(=O)OC(C(F)(F)F)C(F)(F)F)CC2C1` (stereo not drawn) [Example 194, 1,1,1,3,3,3-hexafluoropropan-2-yl 5-((1-methyl-3-phenyl-1H-pyrazol-5-yl)methyl)hexahydropyrrolo[3,4-c]pyrrole-2(1H)-carboxylate], the IC50 on ABHD6 [1] was 1000 to 10000 nM; on FAAH [2], 1000 to 10000 nM; at MAGL [3] (setting [7]), less than 100 nM. The values for the inhibition at 1 µM at ABHD6 [4], on FAAH [5] and at MAGL [6] were less than 25%, 25 to 75% and more than 75%, respectively.

With `O=C(OC(C(F)(F)F)C(F)(F)F)N1CC2CN(Cc3ccc(N4CCOCC4)cc3F)CC2C1` (stereo not drawn) [Example 1, 1,1,1,3,3,3-Hexafluoropropan-2-yl 5-(2-fluoro-4-morpholinobenzyl)hexahydropyrrolo[3,4-c]pyrrole-2(1H)-carboxylate], the IC50 was 1000 to 10000 nM on ABHD6 [1], 100 to 1000 nM on FAAH [2] and less than 100 nM on MAGL [3] (setting [7]). For the same compound, the inhibition at 1 µM on ABHD6 [4] is less than 25%; at FAAH [5], 25 to 75%; at MAGL [6], more than 75%.

Turning to `Cc1cccc(CN2CC3CN(C(=O)OC(C(F)(F)F)C(F)(F)F)CC3C2)c1N1CCCCC1` (stereo not drawn) [Example 30, 1,1,1,3,3,3-Hexafluoropropan-2-yl 5-[[3-methyl-2-(piperidin-1-yl)phenyl]methyl]-octahydropyrrolo[3,4-c]pyrrole-2-carboxylate], the figures for the IC50 on ABHD6 [1], on FAAH [2] and at MAGL [3] (setting [7]) were 1000 to 10000 nM, more than 10000 nM and 100 to 1000 nM, respectively. Besides, the inhibition at 1 µM on ABHD6 [4] was less than 25%; on FAAH [5], less than 25%; on MAGL [6], more than 75%.

On to `Cc1c(CN2CC3CN(C(=O)OC(C(F)(F)F)C(F)(F)F)CC3C2)cccc1C(=O)N1CCCCC1` (stereo not drawn) [Example 187, 1,1,1,3,3,3-hexafluoropropan-2-yl 5-(2-methyl-3-(piperidine-1-carbonyl)benzyl)hexahydropyrrolo[3,4-c]pyrrole-2(1H)-carboxylate], for which the IC50 on ABHD6 [1] was 1000 to 10000 nM; on FAAH [2], 1000 to 10000 nM; at MAGL [3] (setting [7]) it was less than 100 nM. The inhibition at 1 µM at ABHD6 [4] is 25 to 75%; on FAAH [5] it was less than 25%; on MAGL [6], more than 75%.

On to `CC(=O)N1CCN(c2cc(F)ccc2CN2CC3CN(C(=O)OC(C(F)(F)F)C(F)(F)F)CC3C2)CC1` (stereo not drawn) [Example 17, 1,1,1,3,3,3-Hexafluoropropan-2-yl 5-[[2-(4-acetylpiperazin-1-yl)-4-fluorophenyl]methyl]-octahydropyrrolo[3,4-c]pyrrole-2-carboxylate], for which the IC50 was in the range of 1000 to 10000 nM on ABHD6 [1], 1000 to 10000 nM at FAAH [2] and 100 to 1000 nM on MAGL [3] (setting [7]). Further, the figures for the inhibition at 1 µM at ABHD6 [4], at FAAH [5] and at MAGL [6] were less than 25%, 25 to 75% and more than 75%, respectively.

Consider `O=C(OC(C(F)(F)F)C(F)(F)F)N1CC2CN(Cc3ccc(N4CCOCC4)cc3OC(F)(F)F)CC2C1` (stereo not drawn) [Example 11, 1,1,1,3,3,3-Hexafluoropropan-2-yl 5-[[4-(morpholin-4-yl)-2-(trifluoromethoxy)phenyl]methyl]-octahydropyrrolo[3,4-c]pyrrole-2-carboxylate], for which the IC50 is 100 to 1000 nM at ABHD6 [1], 100 to 1000 nM on FAAH [2] and less than 100 nM at MAGL [3] (setting [7]). Also, the inhibition at 1 µM on ABHD6 [4] was less than 25%; on FAAH [5], more than 75%; at MAGL [6] it was more than 75%.

As for `O=C(OC(C(F)(F)F)C(F)(F)F)N1CC2CN(Cc3cccc(Cl)c3N3C4CCC3COC4)CC2C1` (stereo not drawn) [Example 43, 1,1,1,3,3,3-Hexafluoropropan-2-yl 5-[(3-chloro-2-[3-oxa-8-azabicyclo[3.2.1]octan-8-yl]phenyl)methyl]-octahydropyrrolo[3,4-c]pyrrole-2-carboxylate], the IC50 on ABHD6 [1] is 1000 to 10000 nM; on FAAH [2] it was 1000 to 10000 nM; at MAGL [3] (setting [7]), less than 100 nM. In addition, the inhibition at 1 µM was less than 25% at ABHD6 [4], less than 25% at FAAH [5] and more than 75% on MAGL [6].

In the case of `O=C(ON1C(=O)CCC1=O)N1CC2CN(Cc3ccc(Cl)cc3N3CC4CCC(C3)O4)CC2C1` (stereo not drawn) [Example 81, 2,5-Dioxopyrrolidin-1-yl 5-(2-(8-oxa-3-azabicyclo[3.2.1]octan-3-yl)-4-chlorobenzyl)hexahydropyrrolo[3,4-c]pyrrole-2(1H)-carboxylate], the IC50 on ABHD6 [1] was in the range of 1000 to 10000 nM; at FAAH [2], 1000 to 10000 nM; against MAGL [3], 100 to 1000 nM. Also, the inhibition at 1 µM at ABHD6 [4] is 25 to 75%; at FAAH [5], less than 25%; at MAGL [6] it was 25 to 75%.
